# Source: patent US20240287154A1, “MC3R AGONIST PEPTIDES” (The Regents of the University of Michigan, priority 2021, published 2024)
# Non-standard residues stand in square brackets, D forms with d. Residues, ends and D or L forms follow the SMILES beside them. NMeY = CN[C@@H](Cc1ccc(O)cc1)C(=O)O; Nle = CCCC[C@H](N)C(=O)O; dAbu = CC[C@@H](N)C(=O)O
# What was measured:
# human MC4R = human MC4R (Homo sapiens, UniProt P32245); test: Intracellular cAMP levels in live cells, MC3R selectivity relative to MC4R; format: cell-based; conditions: cAMP assays in human MC3R and human MC4R stable cell lines
# human MC4R, sequence (P32245 whole entry): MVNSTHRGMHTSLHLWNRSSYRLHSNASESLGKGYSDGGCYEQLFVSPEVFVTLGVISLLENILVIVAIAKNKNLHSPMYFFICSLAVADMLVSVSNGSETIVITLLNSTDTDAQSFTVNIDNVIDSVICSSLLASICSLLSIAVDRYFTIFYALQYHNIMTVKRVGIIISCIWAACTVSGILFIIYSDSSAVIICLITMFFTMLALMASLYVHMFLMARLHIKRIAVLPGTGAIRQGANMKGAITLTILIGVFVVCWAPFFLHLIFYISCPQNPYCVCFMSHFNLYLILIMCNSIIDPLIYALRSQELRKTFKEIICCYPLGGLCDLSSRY
# human MC3R = molecular target: T1, human MC3R (Homo sapiens, UniProt P41968); test: Intracellular cAMP levels in live cells, MC3R agonist activity; format: cell-based; conditions: cAMP split-luciferase reporter cell line stably expressing human MC3R; direct agonist effect, measurement window 1
# T1 construct: expressed in transfected cells
# T1 sequence (P41968 whole entry): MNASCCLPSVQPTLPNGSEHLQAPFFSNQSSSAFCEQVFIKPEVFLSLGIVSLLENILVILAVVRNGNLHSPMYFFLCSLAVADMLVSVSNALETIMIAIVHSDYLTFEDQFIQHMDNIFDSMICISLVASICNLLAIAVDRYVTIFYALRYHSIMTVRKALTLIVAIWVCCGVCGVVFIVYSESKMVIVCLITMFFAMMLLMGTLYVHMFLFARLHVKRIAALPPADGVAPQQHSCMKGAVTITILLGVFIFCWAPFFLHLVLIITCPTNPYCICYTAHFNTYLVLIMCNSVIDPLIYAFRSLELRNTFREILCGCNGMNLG
# Description: The stable cell lines were grown and maintained in selection media consisting of Dulbecco's modified Eagle media (DMEM) with 4.5 g/l D-glucose, and 4 mM L-glutamine (Thermo Fisher Scientific, Waltham, MA), supplemented with 10% fetal bovine serum, 100 units/ml penicillin, 100 μg/ml streptomycin, 2.5 μg/ml amphotericin B, 200 μg/ml hygromycin B (for positive selection of the GScAMP22f luciferase reporter), and Geneticin™ (G418) 700 μg/ml (for MC3R or MC4R selection). Actual serum concentration during the assay is estimated to be about 1%. Cell line identity is routinely verified by qPCR and MC3R- and MC4R-specific oligonucleotides.
# The assay for the determination of the CAMP response in live cells was described previously. […] Ccells were seeded at a density of 20,000 cells per well using 384-well poly-D lysine-coated, clear bottom, and black-wall assay plates (Corning Inc. Corning, NJ). Cells were allowed to attach to the plates for 18 to 24 h after which growth media was removed and 20 ul of 4% D-luciferin (Promega) in CO2 independent, serum-free medium (Thermo Fisher Scientific) was added to each well. […] Intracellular cAMP levels were measured using an FDSS 7000EX Functional Drug Screening System (Hamamatsu Photonics, Hamamatsu, Japan) in the Center for Chemical Genomics at the Life Sciences Institute. This instrument allowed the in-line addition of test-peptides and receptor agonists while simultaneously acquiring the luminescence signal from live cells. […] A submaximal forskolin (20 μM) concentration was also included to serve as a normalization reference to account for cell number variations and differences in assay transducer efficiency between cell lines.
# With this set up it was possible to evaluate the direct agonist effect of the test-peptides on the MC3R and MC4R cell lines during measurement window 1, while the antagonist profile in the presence of EC90 α-MSH was determined on measurement window 2. […] EC50 or IC50 potency values were determined by non-linear regression by fitting the data to a sigmoid four-parameter variable slope model using the GraphPad Prism version 8.4 software package (San Diego CA).
structure (smiles),measurement,setting,value
"CC(C)[C@H](NC(=O)[C@@H](N)Cc1ccc(O)cc1)C(=O)N[C@@H](CCC(=O)O)C(=O)N[C@H](C)C(=O)N[C@@H](Cc1c[nH]cn1)C(=O)N[C@H](Cc1ccccc1)C(=O)N[C@@H](CCCNC(=N)N)C(=O)N[C@H](Cc1c[nH]c2ccccc12)C(=O)N[C@@H](CC(=O)O)C(=O)N[C@@H](CCCNC(=N)N)C(=O)N[C@@H](Cc1ccccc1)C(=O)NCC(=O)O [CTX-1106, Tyr-Val-Glu-D-Ala-His-D-Phe-Arg-D-Trp-Asp-Arg-Phe-Gly] (H-YVE[dA]H[dF]R[dW]DRFG-OH)",MC3R selectivity (relative to MC4R),human MC4R,120
same,EC50,human MC3R,5.8 nM
"CCCC[C@H](NC(=O)[C@@H](NC(=O)[C@@H](N)Cc1ccc(O)cc1)C(C)C)C(=O)N[C@H](C)C(=O)N[C@@H](Cc1c[nH]cn1)C(=O)N[C@H](Cc1ccccc1)C(=O)N[C@@H](CCCNC(=N)N)C(=O)N[C@H](Cc1c[nH]c2ccccc12)C(=O)N[C@@H](CC(=O)O)C(N)=O [CTX-1109, Tyr-Val-Nle-D-Ala-His-D-Phe-Arg-D-Trp-Asp] (H-YV[Nle][dA]H[dF]R[dW]D-NH2)",MC3R selectivity (relative to MC4R),human MC4R,10.6
same,EC50,human MC3R,13.1 nM
"CCCC[C@H](NC(=O)[C@@H](NC(=O)[C@@H](N)Cc1ccc(O)cc1)C(C)C)C(=O)N[C@H](C)C(=O)N[C@@H](Cc1c[nH]cn1)C(=O)N[C@@H](Cc1ccccc1)C(=O)N[C@@H](CCCNC(=N)N)C(=O)N[C@H](Cc1c[nH]c2ccccc12)C(=O)N[C@@H](CC(=O)O)C(=O)N[C@@H](CCCNC(=N)N)C(=O)N[C@@H](Cc1ccccc1)C(=O)NCC(N)=O [CTX-1118, Tyr-Val-Nle-D-Ala-His-Phe-Arg-D-Trp-Asp-Arg-Phe-Gly] (H-YV[Nle][dA]HFR[dW]DRFG-NH2)",MC3R selectivity (relative to MC4R),human MC4R,59
same,EC50,human MC3R,1.2 nM
"CCCC[C@H](NC(=O)[C@@H](NC(=O)[C@@H](N)Cc1ccc(O)cc1)C(C)C)C(=O)N[C@H](C)C(=O)N[C@@H](Cc1c[nH]cn1)C(=O)N[C@@H](Cc1ccccc1)C(=O)N[C@@H](CCCNC(=N)N)C(=O)N[C@H](Cc1c[nH]c2ccccc12)C(=O)N[C@@H](CC(=O)O)C(=O)N[C@@H](CCCNC(=N)N)C(=O)N[C@@H](Cc1ccccc1)C(N)=O [CTX-1119, Tyr-Val-Nle-D-Ala-His-Phe-Arg-D-Trp-Asp-Arg-Phe] (H-YV[Nle][dA]HFR[dW]DRF-NH2)",MC3R selectivity (relative to MC4R),human MC4R,24
same,EC50,human MC3R,1.9 nM
"CCCC[C@H](NC(C)=O)C(=O)N[C@H](C)C(=O)N[C@@H](Cc1c[nH]cn1)C(=O)N[C@@H](Cc1ccccc1)C(=O)N[C@@H](CCCNC(=N)N)C(=O)N[C@H](Cc1c[nH]c2ccccc12)C(=O)N[C@@H](CC(=O)O)C(=O)N[C@@H](CCCNC(=N)N)C(=O)N[C@@H](Cc1ccccc1)C(=O)NCC(=O)O [CTX-1122, Nle-D-Ala-His-Phe-Arg-D-Trp-Asp-Arg-Phe-Gly] (Ac-[Nle][dA]HFR[dW]DRFG-OH)",MC3R selectivity (relative to MC4R),human MC4R,"7,703"
same,EC50,human MC3R,1.2 nM
"CCCC[C@H](NC(=O)[C@@H](NC(=O)[C@H](Cc1ccc(O)cc1)NC)C(C)C)C(=O)N[C@H](C)C(=O)N[C@@H](Cc1c[nH]cn1)C(=O)N[C@@H](Cc1ccccc1)C(=O)N[C@@H](CCCNC(=N)N)C(=O)N[C@H](Cc1c[nH]c2ccccc12)C(=O)N[C@@H](CC(=O)O)C(=O)N[C@@H](CCCNC(=N)N)C(=O)N[C@@H](Cc1ccccc1)C(=O)NCC(=O)O [CTX-1124, NMe-Tyr-Val-Nle-D-Ala-His-Phe-Arg-D-Trp-Asp-Arg-Phe-Gly] (H-[NMeY]V[Nle][dA]HFR[dW]DRFG-OH)",MC3R selectivity (relative to MC4R),human MC4R,69
same,EC50,human MC3R,1.7 nM
"CCCC[C@H](NC(=O)[C@@H](NC(=O)[C@@H](N)Cc1ccc(O)cc1)C(C)C)C(=O)N[C@@H](C)C(=O)N[C@@H](Cc1c[nH]cn1)C(=O)N[C@@H](Cc1ccccc1)C(=O)N[C@@H](CCCNC(=N)N)C(=O)N[C@H](Cc1c[nH]c2ccccc12)C(=O)N[C@@H](CC(=O)O)C(N)=O [CTX-1129, Tyr-Val-Nle-Ala-His-Phe-Arg-D-Trp-Asp] (H-YV[Nle]AHFR[dW]D-NH2)",MC3R selectivity (relative to MC4R),human MC4R,7.5
same,EC50,human MC3R,1.2 nM
"CCCC[C@H](NC(=O)[C@@H](NC(=O)[C@@H](N)Cc1ccc(O)cc1)C(C)C)C(=O)N[C@H](CC)C(=O)N[C@@H](Cc1c[nH]cn1)C(=O)N[C@@H](Cc1ccccc1)C(=O)N[C@@H](CCCNC(=N)N)C(=O)N[C@H](Cc1c[nH]c2ccccc12)C(=O)N[C@@H](CC(=O)O)C(N)=O [CTX-1131, Tyr-Val-Nle-D-Abu-His-Phe-Arg-D-Trp-Asp] (H-YV[Nle][dAbu]HFR[dW]D-NH2)",MC3R selectivity (relative to MC4R),human MC4R,65
same,EC50,human MC3R,6.6 nM
"CCCC[C@H](NC(=O)[C@@H](NC(=O)[C@@H](N)Cc1ccc(O)cc1)C(C)C)C(=O)N[C@H](Cc1ccccc1)C(=O)N[C@@H](Cc1c[nH]cn1)C(=O)N[C@@H](Cc1ccccc1)C(=O)N[C@@H](CCCNC(=N)N)C(=O)N[C@H](Cc1c[nH]c2ccccc12)C(=O)N[C@@H](CC(=O)O)C(N)=O [CTX-1132, Tyr-Val-Nle-D-Phe-His-Phe-Arg-D-Trp-Asp] (H-YV[Nle][dF]HFR[dW]D-NH2)",MC3R selectivity (relative to MC4R),human MC4R,6.8
same,EC50,human MC3R,3.9 nM
"CCCC[C@H](NC(=O)[C@@H](NC(=O)[C@@H](N)Cc1ccc(O)cc1)C(C)C)C(=O)N[C@H](Cc1ccccc1)C(=O)N[C@@H](Cc1c[nH]cn1)C(=O)N[C@@H](Cc1ccccc1)C(=O)N[C@@H](CCCNC(=N)N)C(=O)N[C@H](Cc1c[nH]c2ccccc12)C(=O)N[C@@H](CC(=O)O)C(=O)N[C@@H](CCCNC(=N)N)C(=O)N[C@@H](Cc1ccccc1)C(=O)NCC(=O)O [CTX-1136, Tyr-Val-Nle-D-Phe-His-Phe-Arg-D-Trp-Asp-Arg-Phe-Gly] (H-YV[Nle][dF]HFR[dW]DRFG-OH)",MC3R selectivity (relative to MC4R),human MC4R,37
same,EC50,human MC3R,1.9 nM
"CCCC[C@H](NC(C)=O)C(=O)N[C@H](CC)C(=O)N[C@@H](Cc1c[nH]cn1)C(=O)N[C@@H](Cc1ccccc1)C(=O)N[C@@H](CCCNC(=N)N)C(=O)N[C@H](Cc1c[nH]c2ccccc12)C(=O)N[C@@H](CC(=O)O)C(=O)N[C@@H](CCCNC(=N)N)C(=O)N[C@@H](Cc1ccccc1)C(=O)NCC(=O)O [CTX-1144, Nle-D-Abu-His-Phe-Arg-D-Trp-Asp-Arg-Phe-Gly] (Ac-[Nle][dAbu]HFR[dW]DRFG-OH)",MC3R selectivity (relative to MC4R),human MC4R,"2,633"
same,EC50,human MC3R,6.6 nM
"CCCC[C@H](NC(C)=O)C(=O)N[C@H](C)C(=O)N[C@@H](Cc1c[nH]cn1)C(=O)N[C@@H](Cc1ccccc1)C(=O)N[C@@H](CCCNC(=N)N)C(=O)N[C@H](Cc1c[nH]c2ccccc12)C(=O)N[C@@H](CC(=O)O)C(=O)N[C@H](CCCNC(=N)N)C(=O)N[C@@H](Cc1ccccc1)C(=O)NCC(=O)O [CTX-1146, Nle-D-Ala-His-Phe-Arg-D-Trp-Asp-D-Arg-Phe-Gly] (Ac-[Nle][dA]HFR[dW]D[dR]FG-OH)",EC50,human MC3R,170 nM
"CCCC[C@H](NC(=O)CNC(=O)COCCOCCNC(=O)CNC(=O)CCc1ccc(I)cc1)C(=O)N[C@H](C)C(=O)N[C@@H](Cc1c[nH]cn1)C(=O)N[C@@H](Cc1ccccc1)C(=O)N[C@@H](CCCNC(=N)N)C(=O)N[C@H](Cc1c[nH]c2ccccc12)C(=O)N[C@@H](CC(=O)O)C(=O)N[C@@H](CCCNC(=N)N)C(=O)N[C@@H](Cc1ccccc1)C(=O)NCC(=O)O [CTX-1148, Gly-Nle-D-Ala-His-Phe-Arg-D-Trp-Asp-Arg-Phe-Gly]",MC3R selectivity (relative to MC4R),human MC4R,1197
same,EC50,human MC3R,1.5 nM
